“Also recorded” adds a separate entry of the source.
Experiments:
Caspase-3 = assay: OGD in primary neurons, Caspase activity; type: cell-based; conditions: 0.1 μM or 1.0 μM compound
Protocol: (§1) A. AEP activity, measured in primary neuronal cultures with 5 μM Cbz-Ala-Ala-Asn-AMC (x-axis denotes neurons were treated with 0.1 μM or 1.0 μM specified compound). B. Caspase activity, measured in primary neuronal cultures with 5 μM Ac-Asp-Glu-Val-Asp-AMC. C. Cathepsin activity, measured in primary neuronal cultures with 5 μM D-Val-Leu-Lys-AMC. D. Inhibition of APP cleavage. Lysates of primary cortical neurons pre-incubated with compounds for 30 min, underwent OGD for 4 hrs, were reperfused for 18 hrs (normoxia neurons remained at normoxic conditions). E. APP can be cleaved in a dose-dependent manner. Lysates of primary cortical neurons pre-incubated with compounds for 30 min, underwent OGD for 4 hrs, were reperfused for 18 hrs (normoxia neurons remained at normoxic conditions).
(§2) Depriving cells of oxygen and glucose is a cellular model that is employed to trigger acidosis in cultured cells. The efficacy of the compounds in a cellular model of oxygen-glucose deprivation (OGD) was determined in an effort to mimic the effects of stroke in primary cultured neurons. As a result of depriving neurons of oxygen and glucose-containing medium, AEP activity was doubled (FIG. 7A, ‘DMSO-Norm’ compared to ‘DMSO-OGD’), while Caspase-3 and Cathepsin activities remained relatively unchanged. […]

Cathepsin = assay: OGD in primary neurons, Cathepsin activity; type: cell-based; conditions: 0.1 μM or 1.0 μM compound
Protocol: as §1, §2

5XFAD mice = assay: Synaptic density, spine density and LTP in 5XFAD mice; type: in vivo, mouse
Excerpt: A. Representative electron microscopy of the synaptic structures. Arrows indicate the synapses. B. Quantitative analysis of the synaptic density in vehicle—and compound 11-treated 5XFAD mice. Data are shown as mean ±SEM (n=3 mice per group). * p <0.01. C. […] Scale bar, 5 μm. D. Quantitative analysis of the spine density. […] E. Long-term potentiation (LTP) of fEPSPs was induced by 3× TBS (4 pulses at 100 Hz, repeated 3 times with a 200-ms interval). Shown traces are representative fEPSPs recorded at the time point 1 and 2 (vehicle treated), 3 and 4 (compound 11-treated mouse). […] Data are presented as mean±SEM. *p<0.05 vs vehicle-treated mice. F. Synaptic transmission assessed by input/output (I/O) relation between stimuli intensity and fEPSP slope. I/O curves obtained in hippocampal slices prepared from vehicle- and compound 11-treated 5XFAD mice.
Synaptic dysfunction is the early feature of AD and is believed to be the basis of cognitive impairment. 5XFAD mice show decreased synaptic density compared to non-transgenic control mice. […] The density of dendritic spines along individual dendrites of pyramidal neurons was assessed by Golgi stain. […] Long-term potentiation (LTP) is a measure of synaptic plasticity that underlies learning and memory. 5XFAD mice have decreased LTP magnitude at Schaffer collateral-CA1 pathways.
Synaptic density was determined by electron microscopy as described previously (22). After deep anesthesia, mice were perfused transcardially with 2% glutaraldehyde and 3% paraformaldehyde in PBS. […]
Electrophysiological analysis was carried out as previously described (23). […] The field excitatory post-synaptic potentials (fEPSPs) were recorded in CA1 stratum radiatum by a glass microelectrode filled with a-CSF with resistance of 3-4 MEI The stimulation output (Master-8; AMPI, Jerusalem) was controlled by the trigger function of an EPC9 amplifier (HEKA Elektronik, Lambrecht, Germany). fEPSPs were recorded under current-clamp mode. […] The magnitudes of LTP are expressed as the mean percentage of baseline fEPSP initial slope. […]

`Nc1ccc(N2CCOCC2)c2nonc12` [Compound 11] was tested, and the “Caspase-3 activity in OGD-treated neurons” value (Caspase-3) was “not observed”, the “Cathepsin activity in OGD-treated neurons” value (Cathepsin) was “not observed” and the “density of dendritic spines (Golgi stain)” value (5XFAD mice; 5XFAD mice) was “increased; also recorded: reversed”. For the same molecule, the “density of synapse (electron microscopy)” value (5XFAD mice; CA1 area, 5XFAD mice) was “notably increased” and the “long-term potentiation (LTP) magnitude” value (5XFAD mice; Schaffer collateral-CA1, 5XFAD mice) was “significantly reversed the LTP deficits; also recorded: enhanced”.

Reference: patent US20170029388A1, “Treatment of Neurodegenerative Diseases with Asparagine Endopeptidase (AEP) Inhibitors and Compositions Related Thereto” (INTERCONTINENTAL GREAT BRANDS LLC, priority 2014, published 2017)
